Measurements published in patent US20240059741A1, “COMPOSITION FOR PREVENTION OR TREATMENT OF SARS-COV-2 INFECTION” (priority 2020, published 2024).

Legend:
SARS-CoV-2 S1 [1] = test system: SARS-CoV-2 S1
proteinaseK = molecular target: T1, proteinaseK (Parengyodontium album, UniProt P06873); assay: Peptide remaining degree after ProtK treatment (Coomassie staining); assay type: in vitro ADME; details: 5 ug/ml proteinaseK, 37° C., 10, 30 and 60 minutes, FIG. 7
T1 construct: purchased Bioshop
Procedure: 200 μL of 50 μM stock solution was prepared with a base buffer (10 mM Tris-base, 10 mM NaCl, pH 7.4) and supplemented with 5 μM CaCl2. For untreated TO samples, 30 μL were obtained from each sample. Thereafter, 5 ug/ml of proteinaseK (Bioshop) was added to a final concentration of the remaining stock. […] Protease inactivated samples were frozen at −20° C. before further use. The frozen sample was supplemented with 8 μL of sample loading buffer (4×NuPAGE; ThermoFisher Scientific), boiled for 10 minutes (50° C.), and centrifuged at 13,500 RPM for 10 minutes before mounting a gel [12% NuPAGE Bis-Tris (ThermoFisher Scientific)] with 1×Mes running buffer. The gel was treated at 200 V for 35 minutes and stained with Coomassie Brilliant Blue dye G-250 (Thermo Fisher Scientific). ImageJ software having a background subtractive function was used as a density meter. All samples were normalized to untreated samples (TO).

SARS-CoV-2 S1 [2] = test system: SARS-CoV-2 S1; remark: listed apart in the source

T1 sequence (P06873 106-384, species assumed): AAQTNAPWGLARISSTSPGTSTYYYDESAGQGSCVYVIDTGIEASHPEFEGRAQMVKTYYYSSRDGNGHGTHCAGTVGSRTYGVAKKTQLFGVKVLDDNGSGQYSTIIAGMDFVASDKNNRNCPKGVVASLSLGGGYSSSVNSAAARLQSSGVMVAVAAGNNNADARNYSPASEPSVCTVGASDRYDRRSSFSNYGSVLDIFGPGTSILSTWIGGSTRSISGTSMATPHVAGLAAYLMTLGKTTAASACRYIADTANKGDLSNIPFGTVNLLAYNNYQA

Compound: CC[C@H](C)[C@H](N)C(=O)N[C@@H](CCC(=O)O)C(=O)N[C@@H](CCC(=O)O)C(=O)N[C@@H](CCC(N)=O)C(=O)N[C@@H](C)C(=O)N[C@@H](CCCCN)C(=O)N[C@H](C(=O)N[C@@H](Cc1ccccc1)C(=O)N[C@@H](CC(C)C)C(=O)N[C@@H](CC(=O)O)C(=O)N[C@@H](CCCCN)C(=O)N[C@@H](Cc1ccccc1)C(=O)N[C@@H](CC(N)=O)C(=O)N[C@@H](Cc1c[nH]cn1)C(=O)N[C@@H](CCC(=O)O)C(=O)N[C@@H](C)C(=O)N[C@@H](CCC(=O)O)C(=O)N[C@@H](CC(=O)O)C(=O)N[C@@H](CC(C)C)C(=O)N[C@@H](Cc1ccccc1)C(=O)N[C@@H](Cc1ccc(O)cc1)C(=O)N[C@@H](CCC(N)=O)C(=O)N[C@@H](CO)C(=O)N[C@@H](CO)C(=O)N[C@@H](CC(C)C)C(=O)N[C@@H](C)C(=O)N[C@@H](CO)C(=O)NCC(=O)N1CCC[C@H]1C(=O)NCC(=O)N[C@H]1CSSC[C@@H](C(=O)N[C@@H](CCCNC(=N)N)C(=O)N[C@H](C(=O)N[C@@H](CC(C)C)C(=O)O)[C@@H](C)CC)NC(=O)[C@H](CC(=O)O)NC(=O)CNC(=O)[C@H](CCCCN)NC(=O)CNC(=O)[C@H](CC(C)C)NC1=O)[C@@H](C)O [CSNP1]
- ka (SARS-CoV-2 S1 [1]): 603.4 M⁻¹ s⁻¹
- peptide remaining degree after proteinase K treatment (proteinaseK): barely remained
- kd (SARS-CoV-2 S1 [2]): 0.0001878 s⁻¹
